# Test results from patent publication US12201594B2, “Methods and compositions for treatment of pain using capsaicin” (Centrexion Therapeutics Corporation, priority 2017, dated 2025).
# What was measured:
# [1] = system: human patients experiencing osteoarthritic knee joint pain; assay: Safety assessments (TEAEs, SAEs, procedural pain ratings) after single intra-articular injection of capsaicin with cooling and lidocaine, Example 1; format: in vivo; details: for All TEAEs / Arthralgia / Hepatic enzyme increased / Influenza / Joint effusion / Nasopharyngitis / Upper respiratory tract infection: through 24 weeks
# Protocol: (§1) Human patients experiencing osteoarthritic knee joint pain received either placebo, a 0.5 mg intra-articular injection of capsaicin into the osteoarthritic knee joint, or a 1.0 mg intra-articular injection of capsaicin into the osteoarthritic knee joint. Transient burning sensation due to administration of capsaicin was attenuated by administering capsaicin according to the following procedure: (i) applying for a duration of about 15 minutes a cooling article to an exterior surface of a human patient's knee presenting with osteoarthritic knee joint pain, wherein the cooling article was a Breg cooling wrap cooled by circulating ice-cold water, (ii) administering by injection into the intra-articular space of the joint of the knee a 15 mL aliquot of a 2% w/w lidocaine solution in saline, (iii) applying for a duration of about 30 minutes a cooling article to an exterior surface of the knee, wherein the cooling article was a Breg cooling wrap cooled by circulating ice-cold water, (iv) administering by injection into the intra-articular space of the joint of the knee a 4 mL aliquot of a solution containing water, polyethylene glycol having a number-average molecular weight of about 300 g/mol, and for patients receiving capsaicin a dose of capsaicin in an amount of 0.5 mg or 1.0 mg, and (v) applying a cooling article to an exterior surface of the knee for a duration of at least about 30 minutes (and up to 60) minutes upon patient request), wherein the cooling article was a Breg cooling wrap cooled by circulating ice-cold water. Further description of experimental procedures and results are provided below:
# (§2) Human patients aged 45-80 years with chronic knee osteoarthritis, stable moderate to severe pain, and intolerability to analgesics were randomized to receive a single intra-articular injection of placebo into the osteoarthritic knee, a single intra-articular injection of a 0.5 mg dose of capsaicin into the osteoarthritic knee, or a single intra-articular injection of a 1.0 mg dose of capsaicin into the osteoarthritic knee.
# as §1, with “The test article (i.e., placebo” for “Human patients experiencing osteoarthritic knee joint pain received either placebo, a 0.5 mg intra-articular injection of capsaicin into the osteoarthritic knee joint,”, “capsaicin)” for “a 1.0 mg intra-articular injection of capsaicin into the osteoarthritic knee joint. Transient burning sensation due to administration of capsaicin”, “administered” for “attenuated by administering capsaicin”, “60” for “60)”, “water.” for “water. Further description of experimental procedures and results are provided below:”
# Safety assessments included treatment-emergent adverse events (TEAEs), serious AEs (SAEs), laboratory abnormalities, and procedural pain ratings (none, mild, moderate, moderately severe, severe). The procedure pain ratings characterize the extent of transient burning sensation experienced by patients due to administration of capsaicin.
# [2] = system: osteoarthritic knee joint pain; assay: Patient Global Impression of Change (PGIC), Example 1; format: in vivo, human
# Protocol: as §2
# as §1, with “The test article (i.e., placebo” for “Human patients experiencing osteoarthritic knee joint pain received either placebo, a 0.5 mg intra-articular injection of capsaicin into the osteoarthritic knee joint,”, “capsaicin)” for “a 1.0 mg intra-articular injection of capsaicin into the osteoarthritic knee joint. Transient burning sensation due to administration of capsaicin”, “administered” for “attenuated by administering capsaicin”, “60” for “60)”, “water.” for “water. Further description of experimental procedures and results are provided below:”
# (§3) Patients completed Patient Global Impression of Change (PGIC; change vs baseline in index knee on 7-point scale; 1=very much improved; 7=very much worse, with scores of 1 or 2 indicating significant improvement) and Patient-specific Functional Scale (PSFS; rate≤3 important activities difficult to perform due to index knee pain on 0-10 scale; 0-able to perform; 10=unable to perform) at scheduled visits. Odds ratios for PGIC scores were calculated with chi-square tests. Changes in Western Ontario and McMaster Universities Osteoarthritis Index (WOMAC) B stiffness subscale and WOMAC C function subscale through week 24 were also assessed. PSFS, WOMAC B, and WOMAC C scores were evaluated using a mixed model for repeated measures. Statistical tests were 2-sided (alpha, P=0.10).
# [3] = system: osteoarthritic knee joint pain; assay: Patient-specific Functional Scale (PSFS), Example 1; format: in vivo, human
# Protocol: as §2
# as §1, with “The test article (i.e., placebo” for “Human patients experiencing osteoarthritic knee joint pain received either placebo, a 0.5 mg intra-articular injection of capsaicin into the osteoarthritic knee joint,”, “capsaicin)” for “a 1.0 mg intra-articular injection of capsaicin into the osteoarthritic knee joint. Transient burning sensation due to administration of capsaicin”, “administered” for “attenuated by administering capsaicin”, “60” for “60)”, “water.” for “water. Further description of experimental procedures and results are provided below:”
# as §3
# [4] = system: osteoarthritic knee joint pain; assay: WOMAC B stiffness subscale and WOMAC C function subscale, Example 1; format: in vivo, human; details: 1.0 mg dose; through week 16
# Protocol: Human patients aged 45-80 years with chronic knee osteoarthritis, stable moderate to severe pain, and intolerability to analgesics were randomized to receive a single intra-articular injection of placebo into the osteoarthritic knee, a single intra-articular injection of a 0.5 mg dose of capsaicin into the osteoarthritic knee, or a single intra-articular injection of a 1.0 mg dose of capsaicin into the osteoarthritic knee. […]
# as §3, with “Statistical tests were 2-sided (alpha, P=0.10).” left out
# [5] = system: pain due to an intermetatarsal neuroma; assay: Average walking pain due to intermetatarsal neuroma (NPRS) after two doses of trans-capsaicin, Example 3; format: in vivo, human; details: 200 μg
# Protocol: Twenty-seven adult, human patients experiencing pain due to an intermetatarsal neuroma were treated by administering a first dose of trans-capsaicin (200 μg of trans-capsaicin) and then, after at least 11 weeks, administered a second dose of trans-capsaicin (200 μg of trans-capsaicin). Patients rated their average walking pain due to the intermetatarsal neuroma on a Numeric Pain Rating Scale (NPRS), where pain is characterized by the patient on a scale of zero to ten (with zero being “no pain”, and ten being “worst possible pain”). Patients rated their average walking pain due to the intermetatarsal neuroma on (i) just prior to receiving the injection of trans-capsaicin and (ii) four (4) weeks after receiving each injection of trans-capsaicin. Patients reported a reduction in average walking pain due to the intermetatarsal neuroma when measured at four weeks after injection of trans-capsaicin for each administration of trans-capsaicin. […]
# Pain due to the intermetatarsal neuroma was evaluated by having patients rate their average walking pain due to the intermetatarsal neuroma on a Numeric Pain Rating Scale (NPRS), where pain is characterized by the patient on a scale of zero to ten (with zero being “no pain”, and ten being “worst possible pain”). […]
# [6] = 2 hours after injection, all groups (capsaicin or placebo)
# [7] = either 0.5 mg or 1.0 dose (n = 105)
structure (smiles),measurement,setting,value
"COc1cc(CNC(=O)CCCCC=CC(C)C)ccc1O [Capsaicin, N-[(4-hydroxy-3-methoxyphenyl)methyl]-8-methylnon-6-enamide]",All TEAEs,[1]; 0.5 mg dose IA (n = 34),16 (47) n (%)
same,Arthralgia,[1]; 0.5 mg dose IA (n = 34),3 (8.8) n (%)
same,Hepatic enzyme increased,[1]; 0.5 mg dose IA (n = 34),2 (5.9) n (%)
same,Influenza,[1]; 0.5 mg dose IA (n = 34),1 (2.9) n (%)
same,Joint effusion,[1]; 0.5 mg dose IA (n = 34),3 (8.8) n (%)
same,Nasopharyngitis,[1]; 0.5 mg dose IA (n = 34),1 (2.9) n (%)
same,Upper respiratory tract infection,[1]; 0.5 mg dose IA (n = 34),2 (5.9) n (%)
same,All TEAEs,[1]; 1.0 mg dose IA (n = 71),21 (30) n (%)
same,Arthralgia,[1]; 1.0 mg dose IA (n = 71),5 (7.0) n (%)
same,Hepatic enzyme increased,[1]; 1.0 mg dose IA (n = 71),1 (1.4) n (%)
same,Influenza,[1]; 1.0 mg dose IA (n = 71),2 (2.8) n (%)
same,Joint effusion,[1]; 1.0 mg dose IA (n = 71),0 n (%)
same,Nasopharyngitis,[1]; 1.0 mg dose IA (n = 71),2 (2.8) n (%)
same,Upper respiratory tract infection,[1]; 1.0 mg dose IA (n = 71),3 (4.2) n (%)
same,patients reporting mild pain (procedural pain rating),[1]; [6],39%
same,patients reporting no pain (procedural pain rating),[1]; [6],50%
same,Incidence of TEAEs,[1]; capsaicin 0.5 mg dose,47%
same,TEAEs mild in severity,[1]; capsaicin 0.5 mg dose,29%
same,TEAEs moderate in severity,[1]; capsaicin 0.5 mg dose,18%
same,SAE,"[1]; capsaicin 0.5 mg dose group, not considered treatment related",One SAE (shoulder pain from osteoarthritis)
same,Incidence of TEAEs,[1]; capsaicin 1.0 mg dose,30%
same,TEAEs mild in severity,[1]; capsaicin 1.0 mg dose,20%
same,TEAEs moderate in severity,[1]; capsaicin 1.0 mg dose,9.9%
same,arthralgia (TEAE),[1]; capsaicin 1.0 mg dose,7.0%
same,arthralgia (TEAE),[1]; capsaicin regardless of dose,7.6%
same,upper respiratory tract infection (TEAE),[1]; capsaicin regardless of dose,4.8%
same,All TEAEs,[1]; [7],37 (35) n (%)
same,Arthralgia,[1]; [7],8 (7.6) n (%)
same,Hepatic enzyme increased,[1]; [7],3 (2.9) n (%)
same,Influenza,[1]; [7],3 (2.9) n (%)
same,Joint effusion,[1]; [7],3 (2.9) n (%)
same,Nasopharyngitis,[1]; [7],3 (2.9) n (%)
same,Upper respiratory tract infection,[1]; [7],5 (4.8) n (%)
same,tolerability / safety profile,"[1]; single injection, 1.0 mg dose, up to 24 weeks, comparable to placebo",well tolerated
same,PGIC: Odds Ratio vs Placebo,"[2]; 0.5 mg dose, week 4",1.76
same,PGIC: proportion of patients reporting significant improvement in the index knee,"[2]; 0.5 mg dose, week 4",58%
same,PGIC: Odds Ratio vs Placebo,"[2]; 0.5 mg dose, week 8",1.89
same,PGIC: Odds Ratio vs Placebo,"[2]; 0.5 mg dose, week 12",2.75
same,PGIC: Odds Ratio vs Placebo,"[2]; 0.5 mg dose, week 16",2.37
same,PGIC: Odds Ratio vs Placebo,"[2]; 0.5 mg dose, week 24",1.68
same,PGIC: Odds Ratio vs Placebo,"[2]; 1.0 mg dose, week 4",2.34
same,PGIC: proportion of patients reporting significant improvement in the index knee,"[2]; 1.0 mg dose, week 4",64%
same,PGIC: Odds Ratio vs Placebo,"[2]; 1.0 mg dose, week 8",2.50
same,PGIC: Odds Ratio vs Placebo,"[2]; 1.0 mg dose, week 12",2.40
same,PGIC: Odds Ratio vs Placebo,"[2]; 1.0 mg dose, week 16",1.85
same,PGIC: Odds Ratio vs Placebo,"[2]; 1.0 mg dose, week 24",1.64
same,PGIC: likelihood of significant improvement compared with placebo,"[2]; 1.0 mg dose, weeks 4, 8 and 12",greater than two-fold likelihood
same,PSFS: LSMD versus Placebo,"[3]; 0.5 mg dose, week 4",0.01
same,PSFS: LSMD versus Placebo,"[3]; 0.5 mg dose, week 8",−0.03
same,PSFS: LSMD versus Placebo,"[3]; 0.5 mg dose, week 12",−0.4
same,PSFS: LSMD versus Placebo,"[3]; 0.5 mg dose, week 16",−0.5
same,PSFS: LSMD versus Placebo,"[3]; 0.5 mg dose, week 24",−0.05
same,PSFS: LSMD versus Placebo,"[3]; 1.0 mg dose, week 4",−1.4
same,PSFS: LSMD versus Placebo,"[3]; 1.0 mg dose, week 8",−0.9
same,PSFS: LSMD versus Placebo,"[3]; 1.0 mg dose, week 12",−1.1
same,PSFS: LSMD versus Placebo,"[3]; 1.0 mg dose, week 16",−0.9
same,PSFS: LSMD versus Placebo,"[3]; 1.0 mg dose, week 24",−0.5
same,PSFS: ability to perform activities versus placebo,"[3]; 1.0 mg dose, weeks 4-16",significantly improved
same,"WOMAC B score, LSMD versus placebo",[4],−2.1
same,"WOMAC C score, LSMD versus placebo",[4],−14.8
"COc1cc(CNC(=O)CCCCC=CC(C)C)ccc1O [trans-capsaicin, N-[(4-hydroxy-3-methoxyphenyl)methyl]-8-methylnon-6-enamide]",reduction in average walking pain due to the intermetatarsal neuroma (NPRS),"[5]; four weeks after first dose, vs prior to first dose",1.6 point
same,reduction in average walking pain due to the intermetatarsal neuroma (NPRS),"[5]; four weeks after second dose, vs just prior to second dose",2.3 point
